Test results from BindingDB's records for doi:10.1074/jbc.M511827200 (Merck Frosst Center For Therapeutic Research, 2006).
pIC50: −log10 of the molar value.

Assays:
Assay in all cases: PTP1B and TCPTP Inhibition Assay
Details in all cases: pH 6.3; 22 °C
[1] = molecular target: T1, Tyrosine-protein phosphatase non-receptor type 1 [1-298] (Homo sapiens, UniProt P18031)
T1 construct: 1-298
T1 sequence (P18031 whole entry): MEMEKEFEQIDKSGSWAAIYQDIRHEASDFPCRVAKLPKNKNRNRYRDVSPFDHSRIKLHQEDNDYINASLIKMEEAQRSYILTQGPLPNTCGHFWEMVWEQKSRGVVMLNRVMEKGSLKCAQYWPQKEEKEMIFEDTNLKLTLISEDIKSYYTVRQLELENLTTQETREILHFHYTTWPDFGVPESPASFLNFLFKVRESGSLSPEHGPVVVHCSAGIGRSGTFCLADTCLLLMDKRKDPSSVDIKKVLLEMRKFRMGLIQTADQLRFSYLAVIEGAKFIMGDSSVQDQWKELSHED

[2] = molecular target: Tyrosine-protein phosphatase non-receptor type 2 [V121L] (Homo sapiens, UniProt P17706, V121L)
Chain of Tyrosine-protein phosphatase non-receptor type 2 [V121L] (P17706 as listed by the source V121L): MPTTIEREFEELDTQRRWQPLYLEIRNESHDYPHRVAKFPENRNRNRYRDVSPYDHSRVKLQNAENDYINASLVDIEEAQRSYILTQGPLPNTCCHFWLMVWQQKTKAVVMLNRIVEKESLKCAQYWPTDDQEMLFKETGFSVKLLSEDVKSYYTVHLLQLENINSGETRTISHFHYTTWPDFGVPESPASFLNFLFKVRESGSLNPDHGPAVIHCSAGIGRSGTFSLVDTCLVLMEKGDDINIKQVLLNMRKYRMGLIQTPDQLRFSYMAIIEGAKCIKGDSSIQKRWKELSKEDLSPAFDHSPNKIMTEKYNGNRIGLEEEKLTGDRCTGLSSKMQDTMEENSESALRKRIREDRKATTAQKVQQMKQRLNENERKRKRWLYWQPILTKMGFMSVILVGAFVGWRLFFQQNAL

[3] = molecular target: Tyrosine-protein phosphatase non-receptor type 1 [L119V] (Homo sapiens, UniProt P18031, L119V)
Chain of Tyrosine-protein phosphatase non-receptor type 1 [L119V] (P18031 1-298 L119V): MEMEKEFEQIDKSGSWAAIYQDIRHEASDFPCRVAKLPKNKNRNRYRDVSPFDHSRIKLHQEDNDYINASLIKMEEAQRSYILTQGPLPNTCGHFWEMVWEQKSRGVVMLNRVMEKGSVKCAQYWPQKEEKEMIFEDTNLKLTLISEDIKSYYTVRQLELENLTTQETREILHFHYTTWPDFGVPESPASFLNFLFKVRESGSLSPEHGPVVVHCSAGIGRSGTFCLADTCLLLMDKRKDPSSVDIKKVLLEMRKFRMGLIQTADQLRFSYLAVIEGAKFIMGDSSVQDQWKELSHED

[4] = molecular target: T2, Tyrosine-protein phosphatase non-receptor type 2 (Homo sapiens, UniProt P17706)
T2 sequence (P17706 whole entry): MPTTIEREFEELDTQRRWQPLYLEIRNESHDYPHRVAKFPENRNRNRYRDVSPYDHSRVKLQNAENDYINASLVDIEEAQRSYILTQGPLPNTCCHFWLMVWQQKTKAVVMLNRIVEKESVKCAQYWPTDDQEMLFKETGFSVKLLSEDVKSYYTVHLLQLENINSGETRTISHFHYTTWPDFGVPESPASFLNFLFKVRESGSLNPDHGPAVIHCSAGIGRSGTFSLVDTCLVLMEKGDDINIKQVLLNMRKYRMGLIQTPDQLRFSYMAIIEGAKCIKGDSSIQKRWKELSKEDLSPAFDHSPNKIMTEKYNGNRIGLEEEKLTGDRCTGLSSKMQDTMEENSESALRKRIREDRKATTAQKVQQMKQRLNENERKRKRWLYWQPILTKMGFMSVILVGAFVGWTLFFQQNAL

Row | Structure (SMILES) | pIC50 [1] | pIC50 [2] | pIC50 [3] | pIC50 [4]
1 | Cc1noc(-c2ccc(C(C/C=C/c3ccccc3)(Cc3ccc(C(F)(F)P(=O)(O)O)cc3)C(=O)c3ccc(F)cc3)cc2)n1 (stereo not drawn) [[difluoro({4-[3-(4-fluorophenyl)-2-[4-(3-methyl-1,2,4-oxadiazol-5-yl)phenyl]-3-oxo-2-[(2E)-3-phenylprop-2-en-1-yl]propyl]phenyl})methyl]phosphonic acid] | 6.79 | 6.86 | 5.72 | 5.80
2 | COC(=O)c1ccc([C@@](C/C=C/c2ccccc2)(Cc2ccc(C(F)(F)P(=O)(O)O)cc2)n2nnc3ccccc32)cc1 [({4-[(4E)-2-(1H-1,2,3-benzotriazol-1-yl)-2-[4-(methoxycarbonyl)phenyl]-5-phenylpent-4-en-1-yl]phenyl}difluoromethyl)phosphonic acid] | – | 7.62 | – | 7.06
3 | O=P(O)(O)C(F)(F)c1ccc(CC(C/C=C/c2ccccc2)(c2ccccc2)n2nnc3ccccc32)cc1 (stereo not drawn) [({4-[(4E)-2-(1H-1,2,3-benzotriazol-1-yl)-2,5-diphenylpent-4-en-1-yl]phenyl}difluoromethyl)phosphonic acid] | 6.96 | – | – | 7.02
